Here are results for six compounds from patent US11433012B2, “Peptides for increasing melanin in melanocytes” (Conopco, Inc., priority 2017, dated 2022).

Structures are written as SMILES. Peptide text beside a SMILES is read from it.

The test system of series [1] is Neonatal foreskin primary human epidermal melanocytes. In words: Melanin content assay (OD405 nm of cell lysate). Type of series: cell-based. Conditions: for % Increase in Melanin / % Melanin / Normalized melanin content / OD405 nm / Normalized melanin content at 0.25 µM: 72 hours; for Normalized melanin content at 0.25 µM: Homo sapiens, Melanocyte, read-out: Normalized melanin content, 100*(% Melanin Content)/(% Cellular viability); for Increase in melanin content of melanocytes (in words): data of Table 2. On the procedure:
(§1) All test compounds were purchased from SIGMA-ALDRICH as stocks of 10 mM in 100% DMSO. They were tested at various concentrations in cell culture (see below). Forskolin (SIGMA Cat. #F6886) and IBMX (SIGMA Cat. #I5879) were used as reference comparators, as they have been reported to increase melanin content. Neonatal foreskin primary human epidermal melanocytes were procured from Cascade Biologicals (labelled passage P0). Melanocytes were maintained in Medium 254CF (Cascade Cat. #M-254CF-500) supplemented with human melanocyte growth supplement (Cascade; Cat. #S-002-5), hereafter referred to as MGM. Cells were maintained at 37° C. in a humidified incubator with 5% CO2 atmosphere.
(§2) 50,000 cells were seeded in 24 well plate in MGM; after 24 hours, cultures were treated with various concentrations of the test materials and left undisturbed for a further period of 72 hours. Comparative vehicle controls of 0.25% (v/v) DMSO were also set up in parallel, simultaneously. At the end of the incubation period, cell viability was determined using the calcein method.
After calcein fluorescence readings were obtained, cells were drained and added fresh 125 μl of 1N NaOH (in 10% DMSO) per well. Cells were lysed by resuspension and incubation (60° C./1 hour). Then this lysate was transferred to a fresh […] and measured OD405 nm in a TECAN M1000 plate reader (estimate of relative melanin content).
(§3) Calcein fluorescence values were ratio converted in 0 to 100 scale (% viability), with 100 representing the value of the 0.25% DMSO sample. % Melanin content was calculated as the ratio between OD405nm value of any sample to that of DMSO reference sample. Normalized melanin content value was then calculated as 100*(% Melanin Content)/(% Cellular viability).
The percentage Increase in melanin content was estimated as [(Normalized melanin content)−100]

The test system is the same in series [2]. In words: Cell viability by the calcein method. The series is classed as cell-based. On the procedure:
as §1, §2
Briefly, cell culture spent media was removed and cells washed once with 0.4 ml of 1×PBS—Ca—Mg solution. Fresh 1 μM calcein-AM was added (0.2 ml/well), including to control wells without cells. Plates were covered with aluminium foil and incubated for 30 minutes. at 37° C. in the regular CO2 incubator. Calcein fluorescence was then measured (λmax 490 nm and λmax 520 nm) in TECAN® M1000 Infinite series plate reader.
as §3

The next series deals with T1, Tyrosinase (Homo sapiens, UniProt P14679).
T1 sequence (P14679 19-529): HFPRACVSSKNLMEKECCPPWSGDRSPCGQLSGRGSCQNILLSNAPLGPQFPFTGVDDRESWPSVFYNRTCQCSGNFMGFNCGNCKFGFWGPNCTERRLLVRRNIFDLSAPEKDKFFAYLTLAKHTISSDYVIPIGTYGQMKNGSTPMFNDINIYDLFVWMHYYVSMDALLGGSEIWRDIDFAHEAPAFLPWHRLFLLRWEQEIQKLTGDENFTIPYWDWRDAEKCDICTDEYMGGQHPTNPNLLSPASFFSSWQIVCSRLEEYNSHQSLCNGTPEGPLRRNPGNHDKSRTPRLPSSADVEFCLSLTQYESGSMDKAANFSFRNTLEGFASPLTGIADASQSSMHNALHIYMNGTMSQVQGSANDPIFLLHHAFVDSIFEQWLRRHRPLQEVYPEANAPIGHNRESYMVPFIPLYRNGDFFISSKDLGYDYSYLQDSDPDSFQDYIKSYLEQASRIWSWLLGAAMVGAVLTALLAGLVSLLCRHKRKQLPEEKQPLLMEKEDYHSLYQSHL
In words: Tyrosinase assay. Conditions: 0.25 μM. The series is classed as biochemical.

Setting [3] is: 0.25 μM, relative to DMSO control.
Where [4] appears, read: 0.25 μM, normalized melanin content minus 100.

As to `CC(C)Cn1c(=O)n(C)c(=O)c2[nH]cnc21` [IBMX, 3-isobutyl-1-methylxanthine, reference compound], the “% Increase in Melanin” value in series [1] (12.5 μM) was found to be 16.6%; in series [1] (25 μM) it was 24.8%; in series [1] (50 μM), 28.2%. Besides, the results for the “% Melanin” value in series [1] (12.5 μM), in series [1] (25 μM) and in series [1] (50 μM) were 116.7%, 118.8% and 116.7%, respectively. Also, the values for the Normalized melanin content in series [1] (12.5 μM), in series [1] (25 μM) and in series [1] (50 μM) were 116.6, 124.8 and 128.2, respectively. The OD405 nm was 0.193 in series [1] (12.5 μM, control 0.165); 0.196 in series [1] (25 μM, control 0.165); 0.193 in series [1] (50 μM, control 0.165). Also, the “% Viability” value in series [2] (human, 72 h, 12.5 μM) is 100.1%; in series [2] (human, 72 h, 25 μM) it was 95.2%; in series [2] (human, 72 h, 50 μM), 91.0%.
Consider `O=C(N[C@@H](CO)C(=O)N[C@@H](Cc1ccc(O)cc1)C(=O)OCc1ccccc1)OCc1ccccc1` [Compound 1, Benzyl (2S)-2-[((2S)-2-{[(benzyloxy)carbonyl]amino}-3-hydroxypropanoyl)amino]-3-(4-hydroxyphenyl)propanoate.] (HELM PEPTIDE1{[O=C(OCc1ccccc1)[*:2]].S.Y.[c1ccc(CO[*:1])cc1]}$$$$V2.0), for which the “% Melanin” value was found to be 135.4% in series [1] (setting [3]); 107.3% in series [1] (3.125 μM); 115.2% in series [1] (6.25 μM); 118.2% in series [1] (12.5 μM); 120.6% in series [1] (25 μM). The OD405 nm is 0.153 in series [1] (0.25 μM, control 0.113); 0.177 in series [1] (3.125 μM, control 0.165); 0.190 in series [1] (6.25 μM, control 0.165); 0.195 in series [1] (12.5 μM, control 0.165); 0.199 in series [1] (25 μM, control 0.165). The “% Increase in Melanin” value was determined as 26.5% in series [1] (setting [4]); 17.9% in series [1] (3.125 μM); 20.6% in series [1] (6.25 μM); 33.3% in series [1] (12.5 μM); 34.0% in series [1] (25 μM). The Normalized melanin content was found to be 117.9 in series [1] (3.125 μM), 120.6 in series [1] (6.25 μM), 133.3 in series [1] (12.5 μM) and 134.0 in series [1] (25 μM). Moreover, the Normalized melanin content at 0.25 µM in series [1] (0.25 μM) came to 126%. Moreover, the “% increase in Tyrosinase activity” value on Tyrosinase worked out at 3.5%. The “% Viability” value in series [2] (human, 72 h, 0.25 μM) is recorded as 107%; in series [2] (human, 72 h, 3.125 μM), 91.0%; in series [2] (human, 72 h, 6.25 μM) it was 95.5%; in series [2] (human, 72 h, 12.5 μM) it was 88.7%; in series [2] (human, 72 h, 25 μM), 90.0%.
As for `C=C[C@@]1(C)CC(=O)[C@]2(O)[C@@]3(C)[C@@H](O)CCC(C)(C)[C@@H]3[C@H](O)[C@H](OC(C)=O)[C@@]2(C)O1` [Forskolin, reference compound], the entries for the “% Increase in Melanin” value in series [1] (2.5 μM), in series [1] (5 μM) and in series [1] (10 μM) were 16.6%, 29.2% and 36.7%, respectively. In addition, the “% Melanin” value in series [1] (2.5 μM) is reported as 111.5%; in series [1] (5 μM), 122.5%; in series [1] (10 μM), 123.7%. Moreover, the Normalized melanin content in series [1] (2.5 μM) was 116.6; in series [1] (5 μM), 129.2; in series [1] (10 μM) it was 136.7. The OD405 nm in series [1] (2.5 μM, control 0.165) was 0.184; in series [1] (5 μM, control 0.165), 0.202; in series [1] (10 μM, control 0.165), 0.204. The “% Viability” value in series [2] (2.5 μM, 72 hours) is 95.6%; in series [2] (5 μM, 72 hours), 94.8%; in series [2] (10 μM, 72 hours) it was 90.5%.
With `C[C@@H](O)[C@H](NC(=O)OCc1ccccc1)C(=O)N[C@@H](Cc1ccc(O)cc1)C(N)=O` [Compound 4, Benzyl (1S,2R)-1-({[(1S)-2-amino-1-(4-hydroxybenzyl)-2-oxoethyl]amino}carbonyl)-2-hydroxypropylcarbamate.] (HELM PEPTIDE1{[O=C(OCc1ccccc1)[*:2]].T.Y.[am]}$$$$V2.0), the “% Melanin” value in series [1] (setting [3]) is listed as 102.7%. This compound also showed an OD405 nm in series [1] (0.25 μM, control 0.113) of 0.116. In series [1] (setting [4]), the “% Increase in Melanin” value is −6.6%. Besides, in series [1] (0.25 μM), the Normalized melanin content at 0.25 µM turned out to be 93.4%. Further, on Tyrosinase, the “% increase in Tyrosinase activity” value is 0.8%. Also, in series [2] (human, 72 h, 0.25 μM), the “% Viability” value is recorded as 110%.
On to `CSCC[C@H](NC(=O)OCc1ccccc1)C(=O)N[C@@H](Cc1c[nH]c2ccccc12)C(=O)O` [Compound 3, (2S)-2-{[(2S)-2-{[(benzyloxy)carbonyl]amino}-4-(methylthio)butanoyl]amino}-3-(1H-indol-3-yl)propanoic acid] (HELM PEPTIDE1{[O=C(OCc1ccccc1)[*:2]].M.W}$$$$V2.0), for which the “% Melanin” value in series [1] (setting [3]) was determined as 106.2%. This compound also returned an OD405 nm in series [1] (0.25 μM, control 0.113) of 0.120. Also, the “% Increase in Melanin” value in series [1] (setting [4]) came out at 7.3%. The Normalized melanin content at 0.25 µM in series [1] (0.25 μM) is 107%. Further, the “Increase in melanin content of melanocytes (in words)” value in series [1] is recorded as “not”. In addition, at Tyrosinase, the “% increase in Tyrosinase activity” value came to 1.8%. For the same compound, in series [2] (human, 72 h, 0.25 μM), the “% Viability” value is reported as 99%.
As for `CC(C)[C@H](NC(=O)OCc1ccccc1)C(=O)N[C@@H](Cc1ccc(O)cc1)C(N)=O` [Compound 2, Benzyl (1S)-1-({[(1S)-2-amino-1-(4-hydroxybenzyl)-2-oxoethyl]amino}carbonyl)-2-methylpropylcarbamate] (HELM PEPTIDE1{[O=C(OCc1ccccc1)[*:2]].V.Y.[am]}$$$$V2.0), the “% Melanin” value came to 110.6% in series [1] (setting [3]); 106.7% in series [1] (1.5 μM); 111.5% in series [1] (3.125 μM); 114.5% in series [1] (6.25 μM); 121.2% in series [1] (12.5 μM); 131.5% in series [1] (25 μM). Besides, in series [1] (50 μM), the “% Melanin” value was determined as 126.6%. Further, the OD405 nm in series [1] (0.25 μM, control 0.113) was 0.125; in series [1] (1.5 μM, control 0.165) it was 0.176; in series [1] (3.125 μM, control 0.165), 0.184; in series [1] (6.25 μM, control 0.165) it was 0.189; in series [1] (12.5 μM, control 0.165), 0.200; in series [1] (25 μM, control 0.165), 0.217. The same compound returned an OD405 nm in series [1] (50 μM, control 0.165) of 0.209. Moreover, the “% Increase in Melanin” value in series [1] (setting [4]) turned out to be 36.5%; in series [1] (1.5 μM) it was 16.9%; in series [1] (3.125 μM), 23.2%; in series [1] (6.25 μM), 14.7%; in series [1] (12.5 μM), 26.5%; in series [1] (25 μM), 42.2%. Further, the “% Increase in Melanin” value in series [1] (50 μM) was determined as 25.8%. Besides, the Normalized melanin content in series [1] (1.5 μM) was found to be 116.9; in series [1] (3.125 μM) it was 123.2; in series [1] (6.25 μM), 114.7; in series [1] (12.5 μM), 126.5; in series [1] (25 μM), 142.2; in series [1] (50 μM), 125.8. Further, the Normalized melanin content at 0.25 µM in series [1] (0.25 μM) is 136%. In addition, the “Increase in melanin content of melanocytes (in words)” value in series [1] is recorded as “substantial increase in melanin content”. Moreover, the “Extent of increase in melanin content versus reference molecules (in words)” value in series [1] (data of Table 3) was “comparable to known standard reference molecules (Forskolin and IBMX)”. In addition, the “% increase in Tyrosinase activity” value at Tyrosinase came to 2.0%. For the same compound, the “% Viability” value is given as 81% in series [2] (human, 72 h, 0.25 μM); 91.3% in series [2] (human, 72 h, 1.5 μM); 90.5% in series [2] (human, 72 h, 3.125 μM); 99.8% in series [2] (human, 72 h, 6.25 μM); 95.8% in series [2] (human, 72 h, 12.5 μM); 92.5% in series [2] (human, 72 h, 25 μM). For the same compound, the “% Viability” value in series [2] (human, 72 h, 50 μM) is on record as 100.6%.
